Data: patent US11324726B2, “Small molecular Stemazole for promoting stem cell clonal formation and applications thereof” (BEIJING NORMAL UNIVERSITY, priority 2016, dated 2022)

What was measured:
[1] = test system: H9 cells; assay: Expression of stem cell markers after total nutrient removal culture, quantitative PCR and immunofluorescence (Example 5 I); type: cell-based, human; conditions: 15 hours total nutrient removal culture; 100 μM
Procedure: Following the experimental method in Example 3, H9 cells were divided into experiment group (ST group) and control group (DMSO group) and cultured. After 15 hours of total nutrient removal culture, the expression of each of human embryonic stem cells' important markers OCT-4, Sox2, FDF4, KLF4, REX1, and Nanog was detected by quantitative PCR.
Ct (Cycle threshold) of each sample was measured by calculating 2^−^ΔΔ^Ct, to compare differential expression of specific gene between different samples. In order to reduce systematic error and sampling error, triplicate wells in parallel were set for each sample. The average value of the triplicate wells was taken as the Ct of the sample, and then 2^−^ΔΔ^Ct was calculated according to the formulas below. […]
In addition, still following the experimental method in Example 3, 1H9 cells were divided into experiment group (ST group), control group (DMSO group) and normal culture group and cultured. After total nutrient removal culture for 15 hours, the expression of each of human embryonic stem cells' important markers OCT-4 and E-Cadherin was detected by immunofluorescence staining.

[2] = test system: Human embryonic stem cell line H9 cells; assay: Apoptosis during total nutrient removal culture, Annexin V/PI flow cytometry (Example 3); type: cell-based; conditions: total nutrient removal for 15 hours; 100 μM; DMSO group about 43%, normal culture about 0.4%
Procedure: After passaged, human embryonic stem cell line H9 cells were divided into the following two groups and inoculated in 6-well plates:
Experiment group (ST group): total nutrient removal culture medium (complete medium with removal of serum and growth factor)+Stemazole dissolved in DMSO at a final concentration in the culture medium of 100 μM;
Control group (DMSO group): total nutrient removal culture medium+DMSO with an amount corresponding to the experiment group;
(§1) Normal culture group: complete medium.
Apoptosis was detected by flow cytometry using the specific apoptosis assay kit Annexin V/PI.

[3] = test system: H9 cells; assay: Embryoid body formation in total nutrient removal culture (Example 5 III); type: cell-based, human; conditions: measured at the 15th hour, 100 μM, compared to DMSO group
Procedure: Following the experimental method in Example 3, H9 cells were divided into experiment group (ST group), control group (DMSO group) and normal culture group and cultured. The formation of EBs was observed under a microscope at the 15th hour, and on day 2 and day 4 of total nutrient removal culture respectively, and the diameter and number of EBs were measured at the 15th hours.

[4] = test system: H9 cells; assay: Ki67 proliferation marker immunofluorescence after total nutrient removal culture (Example 5 II); type: cell-based, human; conditions: 15 hours total nutrient removal culture; 100 μM
Procedure: Following the experimental method in Example 3, H9 cells were divided into experiment group (ST group), control group (DMSO group) and normal culture group and cultured. After total nutrient removal culture for 15 hours, immunofluorescence staining of the H9 cells was conducted for Ki67 (a proliferation marker).

[5] = test system: Human embryonic stem cell line H9 cells; assay: Apoptosis in single-cell culture, Annexin V/PI flow cytometry (Example 2); type: cell-based; conditions: day 2 of inoculation; Stemazole 100 μM, Y27632 10 μM; DMSO group 54.1%
Procedure: Human embryonic stem cell line H9 cells were digested into single cells, divided into 3 groups as follows, and then inoculated at a low density on low-density MEF feeder layer cells in 6-well plates:
Experiment group (ST group): complete medium+Stemazole dissolved in DMSO at a concentration in the final culture medium of 100 μM;
Negative control group (DMSO group): complete medium+DMSO at an amount corresponding to the experiment group;
Positive control group (Y27632 group): complete medium+Y27632 dissolved in DMSO at a concentration in the final culture medium of 10 μM.
The cell ratio of each well of the three groups was 10 H9 cells/1 MEF cell.
Apoptosis was detected by flow cytometry using the specific apoptosis assay kit Annexin V/PI on day 2 of inoculation.

[6] = test system: Human embryonic stem cell strain H1-9 cells; assay: Number of cells as a function of culture time in single-cell culture (Example 4); type: cell-based; conditions: 100 μM; complete medium; single-cell culture on MEF feeder
Procedure: Human embryonic stem cell strain H1-9 cells were digested into single cells, then divided into following three groups and inoculated on low-density MEF feeder layer cells in 6-well plates:
(§2) Experiment group (ST group): complete medium+Stemazole dissolved in DMSO at a final concentration in the culture medium of 100 μM;
Control group (DMSO group): complete medium+DMSO with the amount corresponding to the experiment group;
as §1
The cells in each well of the three groups were maintained well grown on the MEF feeder layer cells, and the medium was supplemented once every 4 days.

[7] = test system: human hippocampal neurosphere stem cells; assay: Cell viability assay (ATP) of neurosphere stem cells (Example 6); type: cell-based; conditions: series concentrations, 4 days; maximum increase versus DMSO control
Procedure: 1) On a superclean bench and under sterile conditions, human embryo hippocampus was taken out;
2) After envelope and blood vessels were removed under a dissecting microscope, tissue obtained was rinsed with pre-cooled PBS at 4° C. 3-5 times, leaving a very small amount of PBS;
3) The tissue was cut into pieces using ophthalmic scissors, and about 5 ml of culture medium was added to suspend the tissue pieces, and then the obtained cell suspension was gently pipetted to achieve single cell state with a pipette tip;
4) The cell suspension was filtered through a 40 μm pore size cell sieve;
5) Cell density was regulated to 1×10^6/ml, and then the cells were inoculated into a […] glass culture flask;
6) The cells in the flask were cultured in a 37° C., 5% CO2 cell culture incubator.
The human hippocampal neurosphere stem cells were mechanically pipetted into small clones, regulated into a suitable density, and inoculated into a 96-well, black-wall plate at about 50 neurospheres/110 μL cell suspension/well. […] Without changing the medium, ATP was added at 20 μL/well after the compound acted for 4 days or other time, and the viability of cells was detected.

[8] = test system: human embryonic stem cell strain H9 cells; assay: Single cell clone formation in single-cell culture, alkaline phosphatase and OCT-4 staining (Example 1); type: cell-based; conditions: 100 μM; for number of clones of alkaline phosphatase positive cells: H9 single cells on MEF feeder
Procedure: Alkaline Phosphatase Staining—
1) Rinsing cells with PBS, 3 times;
2) Fixing the cell with 4% paraformaldehyde for 10 minutes;
3) Washing with PBS, 3 times;
4) Preparing alkaline phosphatase staining agent:solution A:solution B:solution C=10 μl:10 μl:1 ml;
5) Adding the alkaline phosphatase staining agent to cover the cells, and staining for 20 minutes at room temperature in dark;
6) Aspirating off the staining agent, rinsing with PBS 3 times, storing the cells in PBS, and observing staining under a microscope.
Immunofluorescence Staining—
After being digested into single cells, human embryonic stem cell strain H9 cells were divided into two groups as follows, and inoculated on low density MEF feeder layer cells in 96-well plates:
as §2
Control group (DMSO group): complete medium+DMSO with an amount corresponding to the experiment group.
The cell ratio of each well in the two groups was H9 cell/100 MEF cells, and the medium was supplemented once every 4 days.
Alkaline phosphatase staining was performed on day 4 and day 8. The results are shown in FIG. 1A: the number and sizes of the clones formed by the H9 cells in the DMSO group were less and smaller, while the number and sizes of the clones formed in ST group were higher and larger. […] The number of clones of alkaline phosphatase positive cells in the DMSO group averaged about 12 on day 8, and the number of clones of the alkaline phosphatase positive cells in the ST group averaged about 23, and the difference between the number of the clones in the two groups was significant. As to the size, the diameter of the alkaline phosphatase positive cells in the DMSO group on day 4 averaged about 50 microns, and the diameter of the alkaline phosphatase positive cells in the ST group averaged about 100 microns. There was no significant difference between the sizes of the clones in the two groups. The diameter of the alkaline phosphatase positive cells in the DMSO group on day 8 averaged about 70 microns, and the diameter of the alkaline phosphatase positive cells in the ST group averaged about 200 microns. There was a significant difference between the sizes of the clones in the two groups.
OCT-4 immunofluorescence staining was performed on day 1 and day 8.

[9] = test system: H9 cells; assay: Induced differentiation into endoderm, mesoderm and ectoderm cells, marker expression (Example 5 IV); type: cell-based, human; conditions: nutrient starving 15 hours, then 4 days differentiation medium; 100 μM
Description: Following the experimental method in Example 3, H9 cells were divided into experiment group (ST group), control group (DMSO group) and normal culture group and cultured.
The H9 cells were digested by Collagenase IV, washed with DMEM (high glucose) 3 times, and gently blown into small cell clusters, then were inoculated into 100 mm petri dishes with the culture medium changed into differentiation culture medium (DMEM/F12, 20% FBS, 1× non-essential amino acid, 1×sodium pyruvate, 1×β-mercaptoethanol, double antibiotics, and 2 mM glutamine). The medium was changed every 2 days, and the dishes were observed on each day. After 4 days, RNA was extracted and the differentiation ability of the H9 cells to endoderm, mesoderm and ectoderm cells was detected.

SMILES	expression of markers OCT-4, Sox2, FDF4, KLF4, REX1, Nanog by quantitative PCR [1]	expression of markers OCT-4 and E-Cadherin by immunofluorescence staining [1]	apoptosis rate [2]	formation of EBs, diameter and number [3]	expression of proliferation marker Ki67 [4]	Annexin V positive apoptotic cells [5] [%]	number of cells as a function of time [6]	cell viability increase over the control group [7]	OCT-4 immunofluorescence staining, single cell growth into monoclonal cells ([8]; day 1 and day 8)	diameter of the alkaline phosphatase positive cells (clone size) ([8]; day 4, DMSO group about 50)	number of clones of alkaline phosphatase positive cells ([8]; day 4, DMSO group about 8)	diameter of the alkaline phosphatase positive cells (clone size) ([8]; day 8, DMSO group about 70)	number of clones of alkaline phosphatase positive cells ([8]; day 8, DMSO group about 12)	expression of ectoderm marker GFAP [9]	expression of ectoderm marker Pax6 [9]	expression of mesoderm marker MSX1 [9]
NNC(=S)Nc1ccc(-c2nnc(S)o2)cc1 [Stemazole, 4-(4-(5-mercapto-1,3,4-oxadiazole-2-yl)phenyl)thiosemicarbazide]	maintained the stem cell characteristics	maintained the stem cell characteristics	about 8%	more EBs with larger diameter	maintained the proliferation ability	25.2	did not increase	up to 2.7 times	single cells had grown into monoclonal cells	about 100 microns	about 18	about 200 microns	about 23	comparable to that of the normal control group cells	higher than that of normal control group cells	higher than that of normal control group cells
NNC(=S)Nc1ccc(-c2nnc(S)o2)cc1Br [Br-Stemazole, 4-(2-br-4-(5-mercapto-1,3,4-oxadiazole-2-yl)phenyl)thiosemicarbazide]								up to 2.1 times								
C[C@@H](N)[C@H]1CC[C@H](C(=O)Nc2ccncc2)CC1 [Y27632, 4-[(1R)-1-aminoethyl]-N-(pyridine-4-yl)cyclohexane-1-carboxamide, reference compound]						20.1										
